Tested on: M5123 hepatoma
Assay type: in vivo
Conditions: for % Test/Control / Tumor Weight (mg) Day 18: 100 μg/inj., s.c., b.i.d., q.d. 1-20; for % Test/Control: day 18; for Tumor Weight (mg) Day 18: mean ± s.e.m.
From the text: The M5123 hepatoma cells, obtained from Dr. H. P. Morris at the National Cancer Institute, were induced in the Buffalo strain of rats by ingestion of N-(2-fluorenyl-phthalamic acid) and established in serial transplantation. Implantation of the M5123 hepatoma cells in an immunodeficient athymic mouse reproducibly results in progressively growing, lethal tumor.
In contrast to the subrenal capsule assay, in the subcutaneous assay, tumor xenografts are implanted subcutaneously, rather than under the subrenal capsule, and treatment can be initiated at any selected time after the implantation.
In this assay, tumors were implanted subcutaneously in the right flank of athymic female mice and test compounds, BIM-26159, BIM-26187, BIM-26189, BIM-26218, BIM-26223 and BIN-26228, and control were injected subcutaneously in the left flank. For the structures of BIM-26159, BIM-26187, BIM-26189, see "Summary of the Invention" above. The structures of BIM-26223 and BIM-26228 are as follows:
Response of an implanted tumor to the treatment was monitored as follows. The length and width of the tumor were first measured using sensitive Vernier calipers. Tumor weight was then calculated based on the measurements as follows: [length (mm)×width (mm)^2 ]/2 mg. In addition to tumor size or weight, this assay system permits the parameter of "lag time", i.e., the effect of early treatment on the growth potential of tumors to reach a certain size.
In one experiment, thirty two mice were implanted subcutaneously with M5123 hepatoma xenografts on day 0 and randomized into four groups of eight animals per group. The bombesin analog BIM-26159 was administered at 250, 50, 10 μg per injection, S.C., b.i.d.,q.d. 1-18.
In another experiment, we tested the activity of five bombesin analogs, i.e., BIM-26187, BIM-26189, BIM-26218, BIM-26223 and BIM-26228, over a period of 18 days. Forty mice were implanted s.c. with M5123 hepatoma xenografts on day 0, and the randomized into ten animals in the control group and six animals per test group. All compounds were administered at 100 μg per injection, s.c., b.i.d., q.d. 1-18.

Compound	effect on growth of the tumor cells (in words) (100 μg per injection, over 18 days)	% Test/Control	Tumor Weight (mg) Day 18
D-Phe-Gln-Trp-Ala-Val-Gly-CHxAla-Leu-NH2 [BIM-26228]	slightly stimulated growth	115%	667.2 ± 181.6 mg
CC(C)C[C@H](NC(=O)[C@H](CC(C)C)NC(=O)[C@H](Cc1c[nH]cn1)NC(=O)CNC(=O)[C@@H](NC(=O)[C@H](C)NC(=O)[C@H](Cc1c[nH]c2ccccc12)NC(=O)[C@H](CCC(N)=O)NC(=O)[C@H](N)Cc1ccccc1)C(C)C)C(N)=O [BIM-26187, D-Phe-Gln-Trp-Ala-Val-Gly-His-Leu-Leu-NH2]	–	83%	482.8 ± 175.0 mg
